Test results reported in US20250235498A1, “METHODS OF TREATING OR PREVENTING RESPIRATORY DISEASE WITH HOUTTUYNIA CORDATA THUNB-BASED AEROSOL INHALATION THERAPY” (National Sun Yat-sen University, priority 2024, published 2025).

Tested on: cytokine and chemokine in bronchoalveolar lavage fluid (BALF)
Assay: Ovalbumin (OVA)-sensitized phenol-induced COPD animal model, cytokine and chemokine detection in BALF
Type: in vivo, Female BALB/c ByJNarl mice
Details: OVA-sensitized mice exposed to phenol aqueous aerosols for 3 weeks, aerosol inhalation; FIG. 3
Procedure: Four types of aerosol drugs with varying formulation are separately named as drug A, drug B, drug C and NAC. Drug A, drug B and drug C are mainly composed by Houttuynia Cordata Thunb aqueous extract. Drug A (HCA-A) is pure Houttuynia Cordata Thunb aqueous extract. Drug B (HCA-B) is comprised of Houttuynia Cordata Thunb aqueous extract and 500 μM GSH, while Drug C (HCA-C) is comprised of Houttuynia Cordata Thunb aqueous extract, 500 µM GSH and 500 μM BP. NAC is a mucolytic and antioxidant drug already prevalently used in clinic that are known to modulate several pathways of inflammation. NAC is used here as the positive control to compare the efficacy of aerosol formulation of Houttuynia Cordata Thunb in this study.
The OVA-sensitized mice were firstly placed in a custom-built 40 cm×40 cm×30 cm whole-body acrylic exposure chamber, which was filled and continuously replenished with phenol aqueous aerosols (PAA) for 30 minutes, twice per day for three consecutive weeks. PAA were prepared by atomizing 0.25M aqueous phenol solution via a high flow, liquid-feed atomizer (Model 9306, TSI).
Female BALB/c ByJNarl mice (age: 6-8 weeks, weight: 20-25 g) were purchased from National Laboratory Animal Center (NLAC, NARLabs, Taiwan) and approved by the Institutional Animal Care and Use Committee (IACUC) for the experiment of phenol aerosol exposure and inhalation therapy on OVA-treated mice. […]

## CC(=O)N[C@@H](CS)C(=O)O [NAC, N-Acetylcysteine]
  Interleukin 1α (IL-1α) level in BALF: did not show apparent reduction
